Test results from ChEMBL document CHEMBL3638468, “Amides of acetic and propionic acids” (2015).

Target: Neuronal acetylcholine receptor subunit alpha-7 (Rattus norvegicus, UniProt Q05941)
Assay: Binding Assay: Rat brain tissue (hippocampus or whole brain) is homogenized in homogenization buffer (10% w/v). [0.32 M sucrose, 1 mM EDTA; 0.1 mM phenylmethylsulfonyl fluoride (PMSF), 0.01% (w/v) NaN3, pH 7.4, 4 C.] at 600 rpm in a glass homogenizer. The homogenate is centrifuged (1000xg, 4 C., 10 min) and the supernatant is removed. The pellet is resuspended (20% w/v) and the suspension is centrifuged (1000xg, 4 C., 10 mM). The two supernatants are combined and centrifuged (15 000xg, 4 C., 30 min). The pellet obtained in this way is referred to as the P2 fraction.The P2 pellet is washed twice with binding buffer (50 mM Tris-HCl, 1 mM MgCl2, 120 mM NaCl, 5 mM KCl, 2 mM CaCl2, pH 7.4), and centrifuged (15 000xg, 4 C., 30 min).The P2 membranes are resuspended in binding buffer and incubated in a volume of 250 ul (amount of membrane protein 0.1-0.5 mg) in the presence of 1-5 nM [3H]methyllycaconitine, 0.1% (w/v) BSA (bovine serum albumin) and various concentrations of the test substance.
Assay type: tissue-based

Sequence of Neuronal acetylcholine receptor subunit alpha-7 (Q05941 whole entry): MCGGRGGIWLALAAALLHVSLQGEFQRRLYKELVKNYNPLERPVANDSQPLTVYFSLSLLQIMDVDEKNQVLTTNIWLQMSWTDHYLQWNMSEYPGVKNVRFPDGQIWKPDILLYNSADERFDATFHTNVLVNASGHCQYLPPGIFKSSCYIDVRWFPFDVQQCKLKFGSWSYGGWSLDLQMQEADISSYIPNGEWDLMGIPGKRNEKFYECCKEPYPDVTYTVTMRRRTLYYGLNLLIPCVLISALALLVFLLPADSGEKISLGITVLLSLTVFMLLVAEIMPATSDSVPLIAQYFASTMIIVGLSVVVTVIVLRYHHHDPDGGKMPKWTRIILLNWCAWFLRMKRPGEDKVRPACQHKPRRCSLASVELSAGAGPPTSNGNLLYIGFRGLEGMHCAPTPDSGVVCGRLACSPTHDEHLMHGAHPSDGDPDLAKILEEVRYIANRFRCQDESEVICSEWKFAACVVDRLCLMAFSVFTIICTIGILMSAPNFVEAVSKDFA

**Q.** Which Ki does the source give for `O=C(CC1CN2CCC1CC2)Nc1cc2ccc(Br)cc2s1` (stereo unspecified) here?
**A.** The Ki was 200 nM.
